Data published in ChEMBL document CHEMBL4513161, “CO-ADD screening of MMV (CH) - Pandemic Response Box” (2021).
In brackets after ≈: the same amount, converted by molar mass.

Columns and labels:
[1] = tested on: HEK293; test: cells; format: functional, Homo sapiens, ATCC CRL1573; conditions: Homo sapiens, ATCC CRL1573, HEK293; ASSAY_TEST Inhibition of Cell Viability; detection method Resazurin; Fluorescence (ex560/em590); MEDIA DMEM with 10% FBS; plate type 384well; TC; CORNING #3712; time 18 hr; read-out: CC50
[2] = tested on: Pseudomonas aeruginosa; test: Antibacterial activity against Pseudomonas aeruginosa PAO397 [PAO1 d(mexAB-oprM) d(mexCD-oprJ) d(mexEF-oprN) d(mexJKL) d(mexXY) d(opmH)] (CO-ADD:GN_211); MIC in CAMBH media using NBS plates, by OD(600); format: functional; conditions: ASSAY_TEST Inhibition of Bacterial Growth, detection method Absorption (OD600), MEDIA CAMHB, plate type 384well, CORNING #3640, time 18 hr
[3] = tested on: Cryptococcus neoformans
Description: Antifungal activity against Cryptococcus neoformans H99 ATCC 208821 (CO-ADD:FG_002); MIC in YNB media using NBS plates, by Resazurin OD(600-570)

[4] = tested on: Staphylococcus aureus; test: microbe, parasite or virus in culture; conditions: ATCC 43300, 18 h, ASSAY_TEST Inhibition of Bacterial Growth, detection method Absorption (OD600), MEDIA CAMHB, plate type 384well, NBS, CORNING #3640
Description: Antibacterial activity against Staphylococcus aureus MRSA ATCC 43300 (CO-ADD:GP_020); MIC in CAMBH media, using NBS plates, by OD(600)

[5] = tested on: Escherichia coli; test: microbe, parasite or virus in culture; conditions: ATCC 25922, 18 h, ASSAY_TEST Inhibition of Bacterial Growth, detection method Absorption (OD600), MEDIA CAMHB, plate type 384well, NBS, CORNING #3640
Description: Antibacterial activity against Escherichia coli ATCC 25922 (CO-ADD:GN_001); MIC in CAMBH media using NBS plates, by OD(600)

[6] = tested on: Klebsiella pneumoniae; test: microbe, parasite or virus in culture; conditions: ATCC 700603, 18 h, ASSAY_TEST Inhibition of Bacterial Growth, detection method Absorption (OD600), MEDIA CAMHB, plate type 384well, NBS, CORNING #3640
Description: Antibacterial activity against Klebsiella pneumoniae MDR ATCC 70063 (CO-ADD:GN_003); MIC in CAMBH media using NBS plates, by OD(600)

[7] = tested on: Pseudomonas aeruginosa; test: microbe, parasite or virus in culture; conditions: ATCC 27853, 18 h, ASSAY_TEST Inhibition of Bacterial Growth, detection method Absorption (OD600), MEDIA CAMHB, plate type 384well, NBS, CORNING #3640
Description: Antibacterial activity against Pseudomonas aeruginosa ATCC 27853 (CO-ADD:GN_042); MIC in CAMBH media using NBS plates, by OD(600)

[8] = tested on: Acinetobacter baumannii; test: microbe, parasite or virus in culture; conditions: ATCC 19606, 18 h, ASSAY_TEST Inhibition of Bacterial Growth, detection method Absorption (OD600), MEDIA CAMHB, plate type 384well, NBS, CORNING #3640
Description: Antibacterial activity against Acinetobacter baumannii ATCC 19606 (CO-ADD:GN_034); MIC in CAMBH media using NBS plates, by OD600

[9] = tested on: Candida albicans; test: microbe, parasite or virus in culture; conditions: ATCC 90028, ASSAY_TEST Inhibition of Fungal Growth, detection method Absorption (OD530), plate type 384well, NBS, CORNING #3640
Description: Antifungal activity against Candida albicans ATCC 90028 (CO-ADD:FG_001); MIC in YNB media using NBS plates, by OD630

MIC [2] [µM] | MIC [3] [µM] | MIC [4] [µM] | MIC [5] [µM] | MIC [6] [µM] | MIC [7] [µM] | MIC [8] [µM] | MIC [9] [µM] | SMILES | CC50 [1] [µM]
> 20 | > 20 | > 20 | > 20 | > 20 | > 20 | > 20 | > 20 | O=c1[nH]c(=O)n(Cc2cccc(Oc3ccccc3)c2)cc1Nc1ccccc1 | > 20
> 20 | > 20 | > 20 | > 20 | > 20 | > 20 | > 20 | > 20 | CCOC(=O)/C=C/[C@H](C[C@@H]1CCNC1=O)NC(=O)[C@H](CC)n1cccc(NC(=O)c2cc(C)on2)c1=O | > 20
> 20 | > 20 | > 20 | > 20 | > 20 | > 20 | > 20 | > 20 | CC(C)(C)c1ccc(Oc2ccc(N)cc2)cc1 | > 20
> 20 | > 20 | > 20 | > 20 | > 20 | > 20 | > 20 | > 20 | O=S(=O)(Nc1ccc(O)cc1)c1cccc2cccnc12 | > 20
> 20 | > 20 | > 20 | > 20 | > 20 | > 20 | > 20 | > 20 | O=C(c1cc(O)nc2ccccc12)N1CCN(c2ccccc2)CC1 | > 20
> 20 | > 20 | > 20 | > 20 | > 20 | > 20 | > 20 | > 20 | CCc1cc(CCC(=O)Nc2ccccc2O)c(O)nc1C | > 20
> 20 | > 20 | > 20 | > 20 | > 20 | > 20 | > 20 | > 20 | C[C@H](NC(=O)C(=O)Nc1ccccc1C(C)(C)C)C(=O)N[C@@H](CC(=O)O)C(=O)COc1c(F)c(F)cc(F)c1F | > 20
> 20 | > 20 | > 20 | > 20 | > 20 | > 20 | > 20 | > 20 | Cc1ccccc1NC(=O)Nc1cccc([N+](=O)[O-])c1 | > 20
> 20 | > 20 | > 20 | > 20 | > 20 | > 20 | > 20 | > 20 | CCOC(=O)/C=C/[C@H](C[C@@H]1CCNC1=O)NC(=O)[C@@H](CC(=O)[C@@H](NC(=O)c1cc(C)on1)C(C)C)Cc1ccc(F)cc1 | > 20
> 20 | > 20 | > 20 | > 20 | > 20 | > 20 | > 20 | > 20 | NC(=O)c1nccn([C@@H]2O[C@H](CO)[C@@H](O)[C@H]2O)c1=O | > 20
> 20 | ≤ 0.156 | > 20 | > 20 | > 20 | > 20 | > 20 | ≤ 0.156 | COC1CC2CCC(C)C(O)(O2)C(=O)C(=O)N2CCCCC2C(=O)OC(C(C)CC2CCC(OCCO)C(OC)C2)CC(=O)C(C)/C=C(\C)C(O)C(OC)C(=O)C(C)CC(C)/C=C/C=C/C=C/1C (configuration not stated) | > 20
20 (≈ 6.52 µg/mL) | > 20 | > 20 | > 20 | > 20 | > 20 | > 20 | > 20 | O=C(NC1CCCc2c1[nH]c1ccc(Cl)cc21)c1ccccn1 (configuration not stated) | > 20
> 20 | > 20 | > 20 | > 20 | > 20 | > 20 | > 20 | > 20 | O=c1oc2ccc(Br)cc2cc1CSc1ncc[nH]1 | > 20
